According to PubChem BioAssay AID248 (DTP/NCI, 2004):
Several values for one entry are separate records, joined by “and”; a condition that tells them apart may be missing. Equal entries are not always repeated. Toxic doses and inconclusive results are not listed. Rule as the data show it: active = T/C of 150% or more; inactive = T/C below 125%.

Test system: L1210 leukemia ip in BDF1 mice, survival T/C
Assay: NCI In Vivo Anticancer Drug Screen. Data for tumor model L1210 Leukemia (intraperitoneal) in B6D2F1 (BDF1) mice
Conditions: endpoint: mean survival time, higher = longer survival
Outline: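 Mice bearing the transplanted tumor received compound or vehicle. Survival of the treated group was divided by that of the vehicle-treated control group to give the ratio.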

[1] = dose: 100.0 mg/kg/injection, schedule: Q04DX002 (ip), vehicle: saline with Tween-80
[2] = dose: 200.0 mg/kg/injection, schedule: Q04DX002 (ip), vehicle: saline with Tween-80
[3] = dose: 400.0 mg/kg/injection, schedule: Q04DX002 (ip), vehicle: saline with Tween-80
[4] = dose: 100.0 mg/kg/injection, schedule: Q01DX001 (ip), vehicle: Klucel (hydroxypropylcellulose) (HPC)
[5] = dose: 200.0 mg/kg/injection, schedule: Q01DX001 (ip), vehicle: Klucel (hydroxypropylcellulose) (HPC)
[6] = dose: 100.0 mg/kg/injection, schedule: Q01DX001 (ip), vehicle: saline
[7] = dose: 200.0 mg/kg/injection, schedule: Q01DX001 (ip), vehicle: saline
[8] = dose: 100.0 mg/kg/injection, schedule: Q01DX001 (ip), vehicle: carboxymethylcellulose (CMC)
[9] = dose: 200.0 mg/kg/injection, schedule: Q01DX001 (ip), vehicle: carboxymethylcellulose (CMC)
[10] = dose: 100.0 mg/kg/injection, schedule: Q01DX009 (ip), vehicle: Klucel (hydroxypropylcellulose) (HPC)
[11] = dose: 200.0 mg/kg/injection, schedule: Q01DX009 (ip), vehicle: Klucel (hydroxypropylcellulose) (HPC)
[12] = dose: 100.0 mg/kg/injection, schedule: Q01DX005 (ip), vehicle: saline
[13] = dose: 100.0 mg/kg/injection, schedule: Q01DX009 (ip), vehicle: saline
[14] = dose: 200.0 mg/kg/injection, schedule: Q01DX005 (ip), vehicle: saline
[15] = dose: 200.0 mg/kg/injection, schedule: Q01DX009 (ip), vehicle: saline
[16] = dose: 400.0 mg/kg/injection, schedule: Q01DX009 (ip), vehicle: saline
[17] = dose: 400.0 mg/kg/injection, schedule: Q01DX001 (ip), vehicle: carboxymethylcellulose (CMC)
[18] = dose: 100.0 mg/kg/injection, schedule: Q04DX003 (ip), vehicle: saline with Tween-80
[19] = dose: 100.0 mg/kg/injection, schedule: Q04DX003 (ip), vehicle: Klucel (hydroxypropylcellulose) (HPC)
[20] = dose: 200.0 mg/kg/injection, schedule: Q04DX003 (ip), vehicle: Klucel (hydroxypropylcellulose) (HPC)
[21] = dose: 400.0 mg/kg/injection, schedule: Q04DX003 (ip), vehicle: Klucel (hydroxypropylcellulose) (HPC)
[22] = dose: 50.0 mg/kg/injection, schedule: Q01DX001 (ip), vehicle: Klucel (hydroxypropylcellulose) (HPC)
[23] = dose: 400.0 mg/kg/injection, schedule: Q01DX009 (ip), vehicle: Klucel (hydroxypropylcellulose) (HPC)

Measured: T/C

Nc1ncc(CSCc2ccccc2)c(-c2ccccc2)n1
inactive: [1] 100 % of control | [2] 96 % of control | [3] 96 % of control

C/C(Cl)=C1\CCCC\C1=N\NC(N)=O
inactive: [4] 95 % of control | [5] 98 % of control | dose: 400.0 mg/kg/injection, schedule: Q01DX001 (ip), vehicle: Klucel (hydroxypropylcellulose) (HPC) 102 % of control

CCOP(=S)(NN=C1CCCC1)OCC
inactive: [6] 95 % of control | [7] 95 % of control

CCOC(=O)C1CC(=O)c2cc(OC)c(OC)cc2C1c1ccc(OC)c(OC)c1 (stereo not drawn)
inactive: [8] 98 % of control | [9] 89 % of control

O=C(CCl)Nc1ccc(O)c2ccccc12
inactive: dose: 75.0 mg/kg/injection, schedule: Q01DX001 (ip), vehicle: other 102 % of control | dose: 150.0 mg/kg/injection, schedule: Q01DX001 (ip), vehicle: other 91 % of control

CSc1ccc(P(=NS(=O)(=O)c2ccc(C)cc2)(c2ccc(SC)cc2)c2ccc(SC)cc2)cc1
inactive: [10] 104 % of control | [11] 98 % of control

CCN(CC)CCNc1ccccc1[N+](=O)[O-]
inactive: dose: 75.0 mg/kg/injection, schedule: Q01DX001 (ip), vehicle: acid diluted with saline 100 % of control | dose: 75.0 mg/kg/injection, schedule: Q04DX003 (ip), vehicle: acid diluted with saline 103 % of control | dose: 150.0 mg/kg/injection, schedule: Q01DX001 (ip), vehicle: acid diluted with saline 102 % of control | dose: 150.0 mg/kg/injection, schedule: Q04DX003 (ip), vehicle: acid diluted with saline 95 % of control | dose: 300.0 mg/kg/injection, schedule: Q01DX001 (ip), vehicle: acid diluted with saline 110 % of control

S=P(Nc1ccccc1)(Nc1ccccc1)Nc1ccccc1
inactive: dose: 50.0 mg/kg/injection, schedule: Q01DX009 (ip), vehicle: Klucel (hydroxypropylcellulose) (HPC) 96 % of control | [10] 98 % of control | [11] 98 % of control

O=c1ccn2c(n1)OC1C(O)C(CO)OC12 (stereo not drawn)
inactive: [12] 103 % of control | [13] 97 % of control | [14] 111 % of control | [15] 109 % of control | [16] 101 % of control

CCOC(=O)C1(Cc2ccccc2)CCCC1=O (stereo not drawn)
inactive: [8] 107 % of control | [9] 96 % of control | [17] 96 % of control

Cc1ccccc1C(C)C
inactive: [18] 94 % of control | dose: 200.0 mg/kg/injection, schedule: Q04DX003 (ip), vehicle: saline with Tween-80 98 % of control | dose: 400.0 mg/kg/injection, schedule: Q04DX003 (ip), vehicle: saline with Tween-80 91 % of control

O=C(NCCNC(=O)c1ccncc1)c1ccccc1
inactive: [8] 93 % of control | [9] 104 % of control | [17] 98 % of control

Cc1ccc(C)c(NC(=O)Nc2c(C)n(C)n(-c3ccccc3)c2=O)c1
inactive: [10] 96 % of control | [19] 97 % of control | [11] 95 % of control | [20] 89 % of control | [21] 93 % of control

C[n+]1ccccc1Cl
inactive: dose: 50.0 mg/kg/injection, schedule: Q04DX002 (ip), vehicle: saline 115 % of control | dose: 100.0 mg/kg/injection, schedule: Q04DX002 (ip), vehicle: saline 108 % of control | dose: 200.0 mg/kg/injection, schedule: Q04DX002 (ip), vehicle: saline 110 % of control

CCCCCC(=O)Oc1ccccc1C(=O)O
inactive: dose: 50.0 mg/kg/injection, schedule: Q01DX001 (ip), vehicle: carboxymethylcellulose (CMC) 100 % of control | [8] 100 % of control | [9] 97 % of control | [17] 92 % of control

Nc1nc(SCc2ccccc2)nc2nc[nH]c12
inactive: [22] 91 % of control | [4] 95 % of control | [5] 93 % of control

S=P1(c2ccccc2)Nc2ccc(Cl)cc2N1 (stereo not drawn)
inactive: dose: 75.0 mg/kg/injection, schedule: Q04DX002 (ip), vehicle: gum acacia 104 % of control | dose: 150.0 mg/kg/injection, schedule: Q04DX002 (ip), vehicle: gum acacia 104 % of control | dose: 300.0 mg/kg/injection, schedule: Q04DX002 (ip), vehicle: gum acacia 101 % of control

O=C(NN=C1CCCC1)c1ccccc1O
inactive: [13] 102 % of control | [15] 102 % of control | [16] 120 % of control

CC1(C)N=C(N)N=C(N)N1c1ccc(OCCCc2ccccc2)c([N+](=O)[O-])c1
inactive: [10] 103 % of control | [11] 103 % of control

COc1ccc2nc(C)c(COC(C)=O)cc2c1
inactive: dose: 100.0 mg/kg/injection, schedule: Q04DX003 (ip), vehicle: saline 100 % of control | dose: 200.0 mg/kg/injection, schedule: Q04DX003 (ip), vehicle: saline 98 % of control | dose: 400.0 mg/kg/injection, schedule: Q04DX003 (ip), vehicle: saline 105 % of control

CCCCOC(=O)CN(C)/N=N/c1nc[nH]c1C(=O)OCC
inactive: dose: 25.0 mg/kg/injection, schedule: Q01DX001 (ip), vehicle: Klucel (hydroxypropylcellulose) (HPC) 97 % of control | dose: 25.0 mg/kg/injection, schedule: Q04DX003 (ip), vehicle: Klucel (hydroxypropylcellulose) (HPC) 99 % of control | [22] 97 % of control | dose: 50.0 mg/kg/injection, schedule: Q04DX003 (ip), vehicle: Klucel (hydroxypropylcellulose) (HPC) 96 % of control | [4] 99 % of control and 104 % of control | [19] 94 % of control

O=C(Nc1ccccc1)c1ccccc1
inactive: [19] 97 % of control | [20] 94 % of control | [21] 103 % of control

Cc1ccc(C(=O)C2CC2)cc1C
inactive: dose: 50.0 mg/kg/injection, schedule: Q01DX009 (ip), vehicle: saline with Tween-80 100 % of control | dose: 100.0 mg/kg/injection, schedule: Q01DX009 (ip), vehicle: saline with Tween-80 91 % of control | [18] 98 % of control | dose: 200.0 mg/kg/injection, schedule: Q01DX009 (ip), vehicle: saline with Tween-80 91 % of control | dose: 202.0 mg/kg/injection, schedule: Q04DX003 (ip), vehicle: saline with Tween-80 107 % of control

O=CC(O)C(Cl)C(Cl)C(O)CCl (stereo not drawn)
inactive: [1] 98 % of control | [2] 98 % of control | [3] 102 % of control

COC1OC(Cn2cc(-c3ccccc3)nn2)C(OC(C)=O)C(OC(C)=O)C1OC(C)=O (stereo not drawn)
inactive: [12] 100 % of control | [14] 96 % of control

COC(=O)CCN1CCN(c2ccccc2)CC1
inactive: [6] 98 % of control | [7] 98 % of control | dose: 400.0 mg/kg/injection, schedule: Q01DX001 (ip), vehicle: saline 97 % of control

O=C(Nc1ccccc1Cl)OC/C=C/c1ccccc1
inactive: [10] 103 % of control | dose: 100.0 mg/kg/injection, schedule: Q04DX002 (ip), vehicle: Klucel (hydroxypropylcellulose) (HPC) 88 % of control | [11] 96 % of control | dose: 200.0 mg/kg/injection, schedule: Q04DX002 (ip), vehicle: Klucel (hydroxypropylcellulose) (HPC) 88 % of control | [23] 108 % of control | dose: 400.0 mg/kg/injection, schedule: Q04DX002 (ip), vehicle: Klucel (hydroxypropylcellulose) (HPC) 100 % of control

Nc1nc(-c2ccccc2N=NN2CCN(N=Nc3ccccc3-c3nc(N)c4ccccc4n3)CC2)nc2ccccc12
inactive: [19] 101 % of control | [20] 96 % of control

CC1(C)OCC(C(OC(=O)c2ccccc2)C(OC2CCCCO2)C2COC(C)(C)O2)O1 (stereo not drawn)
inactive: [19] 94 % of control | [20] 96 % of control | [21] 94 % of control

CN(C)c1ccc(N=Nc2cccc([N+](=O)[O-])c2)cc1
inactive: [10] 105 % of control | [11] 97 % of control | [23] 100 % of control
